Experimental data: ChEMBL document CHEMBL4828722, “The synthesis and bioactivity of pyrrolo[2,3-d]pyrimidine derivatives as tyrosine kinase inhibitors for NSCLC cells with EGFR mutations” (Eur J Med Chem, 2021)

Tests used:
HCC827 = assay: Potency index, ratio of avitinib IC50 to test compound IC50 for cytotoxicity against human HCC827 cells harboring EGFR del E746-A750 mutant assessed as reduction in cell viability measured after 48 hrs by CCK8 assay; assay type: functional
[1] = Selectivity index, ratio of IC50 for cytotoxicity against human HBE cells to IC50 for cytotoxicity against human HCC827 cells harboring EGFR del E746-A750 mutant assessed as reduction in cell viability measured after 48 hrs by CCK8 assay
[2] = Potency index, ratio of avitinib IC50 to test compound IC50 for cytotoxicity against human BEAS-2B cells assessed as reduction in cell viability measured after 48 hrs by CCK8 assay; assay type: cell-based; conditions: read-out: Ratio IC50
[3] = Potency index, ratio of avitinib IC50 to test compound IC50 for cytotoxicity against human HBE cells assessed as reduction in cell viability measured after 48 hrs by CCK8 assay; assay type: cell-based; conditions: read-out: Ratio IC50

C=CC(=O)Nc1cccc(Oc2nc(Nc3ccc(N4CCN(C)CC4)c(N)c3)nc3[nH]ccc23)c1
Ratio IC50 (HCC827): 2
Selectivity Index [1]: 493
selectivity ratio at 48 h [2]: 2
selectivity ratio at 48 h [3]: 2
